Literature values, collected in patent publication US6767550B1, “Hydroxyapatite based drug delivery implant for cancer treatment” (Berkeley Advanced Biomaterials, Inc., priority 2000, dated 2004).

Columns and labels:
[1] = 30 mg/m^2 intravenous bolus dose; 2.5 hours after administration
[2] = cumulative dose of 700 mg.m^2
[3] = in vivo

marro drug concentration [1]: 0.52 µg/g
oral absorption [3]: poor oral absorption
SMILES: COc1cccc2c1C(=O)c1c(O)c3c(c(O)c1C2=O)C[C@@](O)(C(=O)CO)C[C@@H]3O[C@H]1C[C@H](N)[C@H](O)[C@H](C)O1 [doxorubicin]
patients experiencing cardiotoxicity [2]: 30-40%
